In patent publication EP4722195A1, “PH-SENSITIVE CATIONIC LIPID AND LIPID NANOPARTICLES” (National University Corporation Hokkaido University, priority 2023, dated 2024):

Tested on: proprotein convertase subtilisin/kexin type 9 (PCSK9)
Experiment: PCSK9-targeted genome editing in mice, serum PCSK9 (ELISA)
Assay type: in vivo, Balb/c mice
Details: Example 34, Fig. 13
Method: Specifically, an RNA solution was first prepared to contain Cas9-mRNA (TriLink, 5moU-modified) and gRNA targeting proprotein convertase subtilisin/kexin type 9 (PCSK9) (SEQ ID NO: 3) at a mass ratio of 1:2 (N/P = 6.0). Using this RNA solution, in the same manner as Example 32, lipid nanoparticles encapsulating Cas9-mRNA and PCSK9-gRNA and having a composition of TxT-5-SA14/DSPC/chol/PEG-DMG = 50/3/47/1.5 (mol%) were prepared (lipid nanoparticles for PCSK9-targeted genome editing). […]
Subsequently, the prepared lipid nanoparticles for PCSK9-targeted genome editing were administered via tail vein injection to female Balb/c mice (4 weeks old) at doses of 0.3, 1.0, and 2.0 mg RNA/kg. […] The collected blood was allowed to stand at room temperature for 1 hour, followed by centrifugation at 4°C, 1,000 × g for 10 minutes. The supernatant was collected to obtain serum. The concentration of PCSK9 in the serum was measured using a commercially available ELISA kit (Mouse/Rat PCSK9 ELISA Kit, CircuLex). Calibration samples were prepared by serial dilution from 6 ng/mL to obtain solutions of 3, 1.5, 0.75, 0.375, 0.188, and 0.094 ng/mL, each in 300 µL volumes. Serum samples were diluted 100-fold. […] Finally, 100 µL of Stop Solution (CircuLex) was added, and absorbance at 450 nm and 540 nm was measured using a spectrophotometer (Varioskan Lux, Thermo Fisher Scientific).

## CCCCCCCN(CCCCCCC)C(=O)CCCC(=O)OCC(COC(=O)CCCC(=O)N(CCCCCCC)CCCCCCC)(COC(=O)CCCC(=O)N(CCCCCCC)CCCCCCC)NC(=O)CCN1CCCCC1 [TxT-5-5A14, 2-(((5-(diheptylamino)-5-oxopentanoyl)oxy)methyl)-2-(3-(piperidin-1-yl)propanamido)propane-1,3-diyl bis(5-(diheptylamino)-5-oxopentanoate)]
0.3, 1.0, and 2.0 mg RNA/kg
  PCSK9 knockout efficiency versus dose: dose-dependent increase in PCSK9 knockout efficiency
Dose of 2.0 mg RNA/kg tail vein, serum PCSK9 ten days after administration, N = 3 to 6
  PCSK9 knockout activity: no less than 90%
